Measured values as given in patent US11236086B2, “Substituted pyrrolopyridines as inhibitors of activin receptor-like kinase” (BLUEPRINT MEDICINES CORPORATION, priority 2017, dated 2022).

Columns and labels:
[1] = molecular target: T1, ALK2R206H (mutant ALK2, N-terminally tagged with GST) (Homo sapiens, UniProt Q04771, R206H); assay: ALK binding assay (LANTHASCREEN TR-FRET competitive binding, displacement of Kinase Tracer 178); conditions: read-out: Binding Assay (IC50 class)
T1 construct: purchased Carna Bioscience or ThermoFisher 09-148 or PV6232
T1 sequence (Q04771 21-509 R206H): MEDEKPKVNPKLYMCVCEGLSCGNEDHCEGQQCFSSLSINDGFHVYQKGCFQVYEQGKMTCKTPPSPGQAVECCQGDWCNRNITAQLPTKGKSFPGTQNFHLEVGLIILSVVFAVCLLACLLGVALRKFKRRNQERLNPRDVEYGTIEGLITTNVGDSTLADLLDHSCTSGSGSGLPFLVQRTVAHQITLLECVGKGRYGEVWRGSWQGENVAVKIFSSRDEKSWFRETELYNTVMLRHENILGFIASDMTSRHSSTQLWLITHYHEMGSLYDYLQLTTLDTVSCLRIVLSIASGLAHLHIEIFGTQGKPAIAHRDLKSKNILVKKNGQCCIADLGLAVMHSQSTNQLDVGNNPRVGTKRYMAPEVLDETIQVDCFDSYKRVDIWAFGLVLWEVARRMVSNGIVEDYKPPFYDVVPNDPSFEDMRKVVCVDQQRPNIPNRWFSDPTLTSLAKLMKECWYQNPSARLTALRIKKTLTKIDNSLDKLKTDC
Outline: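 Competitive displacement of Kinase Tracer 178 (50 nM) from N-terminally GST-tagged mutant ALK2 R206H (2-5 nM) by compound, detected by TR-FRET with Eu-anti-GST antibody (4-10 nM). 30 min room temperature incubation, 1% DMSO final; normalized signal fitted to 4-parameter log dose response for IC50.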

[2] = molecular target: T2, human ALK2 R206H (Homo sapiens, UniProt Q04771, R206H); assay: Cell-based ALK2-R206H cell activity assay (Smad1-Ser463/Ser465 phosphorylation by AlphaLISA in HEK293-ALK2-R206H cells); conditions: phospho-Smad1 AlphaLISA, read-out: Cell Line (Cell Assay, IC50 class)
T2 construct: expressed in transfected cells; host or cells: HEK293 (ATCC CRL1573), lentivirus transduction, blasticidin selection
T2 sequence (Q04771 21-509 R206H): T1 sequence (Q04771 21-509 R206H)
Outline: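 IC50 comes from a 10-point curve, scaled between DMSO and 1 μM LDN193189 controls, of lysate phospho-Smad1 (Ser463/465) measured by AlphaLISA. Compounds (top 10 μM or 1 μM, 3-fold steps, duplicates) were given 2-3 h to serum-starved HEK293 cells that stably express FLAG-tagged human ALK2 R206H.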

## N#Cc1ccc(-c2cc3c(N4CCN(C(=O)OC5COC5)CC4)ccnc3[nH]2)cc1 [Compound 188]
[1]
  IC50: ≤ 10 nM
[2]
  IC50: ≤ 100 nM

## Cc1nc(-c2[nH]c3nccc(N4CCN(C(=O)OC5COC5)CC4)c3c2C#N)cn1C [Compound 288]
[1]
  IC50: ≤ 10 nM
[2]
  IC50: ≤ 100 nM

## Cn1cnc(-c2[nH]c3nccc(N4CCN(C(=O)O[C@H]5C[C@H](F)C5)CC4)c3c2C#N)c1 [Compound 297]
[1]
  IC50: ≤ 10 nM
[2]
  IC50: ≤ 100 nM

## Cc1nc(-c2cc3c(N4CCN(C(=O)OC5CS(=O)(=O)C5)CC4)ccnc3[nH]2)cs1 [Compound 387]
[1]
  IC50: ≤ 10 nM
[2]
  IC50: ≤ 100 nM

## Cn1cc(-c2cc3c(N4CCN(C(=O)OC5COC5)CC4)ccnc3[nH]2)nc1Cl [Compound 275]
[1]
  IC50: ≤ 10 nM
[2]
  IC50: ≤ 100 nM

## Cc1nc(-c2[nH]c3nccc(N4CCN(C(=O)OC5CCC5(F)F)CC4)c3c2C#N)cn1C (stereo not shown) [Compound 413]
[1]
  IC50: ≤ 10 nM
[2]
  IC50: ≤ 100 nM

## CC(=O)N1CCc2sc(-c3[nH]c4nccc(N5CCN(C(=O)OC6COC6)CC5)c4c3C#N)nc2C1 [Compound 470]
[1]
  IC50: ≤ 10 nM
[2]
  IC50: ≤ 100 nM

## N#Cc1ccc(-c2cc3c(N4CCN(C(=O)OC5COC5)CC4)ccnc3[nH]2)nc1 [Compound 192]
[1]
  IC50: ≤ 10 nM
[2]
  IC50: 100 to 500 nM

## O=C(C1CC1)N1CCN(c2ccnc3[nH]c(-c4ccc(F)cc4)cc23)CC1 [Compound 19]
[1]
  IC50: ≤ 10 nM
[2]
  IC50: 100 to 500 nM

## Cc1nc(-c2cc3c(N4CCN(C(=O)OC5COC5)CC4)ccnc3[nH]2)co1 [Compound 102]
[1]
  IC50: ≤ 10 nM
[2]
  IC50: 100 to 500 nM

## Cc1nc(-c2cc3c(N4CCN(C(=O)OC5CCC5)CC4)ccnc3[nH]2)cs1 [Compound 159]
[1]
  IC50: ≤ 10 nM
[2]
  IC50: ≤ 100 nM

## O=C(C1CC1)N1CCN(c2ccnc3[nH]c(-c4cnn(Cc5ccccc5)c4)cc23)CC1 [Compound 315]
[1]
  IC50: ≤ 10 nM
[2]
  IC50: ≤ 100 nM

## CCOC(=O)N1CCN(c2ccnc3[nH]c(-c4ccc(C(C)(C)C#N)cn4)cc23)CC1 [Compound 282]
[1]
  IC50: ≤ 10 nM
[2]
  IC50: ≤ 100 nM

## O=C(OC1COC1)N1CCN(c2ccnc3[nH]c(-c4cnn(C(F)F)c4)c(Cl)c23)CC1 [Compound 407]
[1]
  IC50: ≤ 10 nM
[2]
  IC50: ≤ 100 nM

## Cn1ncc(-c2cc3c(N4CCN(C(=O)OC5COC5)CC4)ccnc3[nH]2)c1C#N [Compound 210]
[1]
  IC50: ≤ 10 nM
[2]
  IC50: 100 to 500 nM

## O=C(C1CC1)N1CCN(c2ccnc3[nH]c(-c4ccc(C5CCCOC5)cc4)cc23)CC1 (stereo not shown) [Compound 328]
[1]
  IC50: ≤ 10 nM
[2]
  IC50: ≤ 100 nM

## CCOC(=O)N1CCN(c2ccnc3[nH]c(-c4cn(C)nc4Cl)cc23)CC1 [Compound 122]
[1]
  IC50: ≤ 10 nM
[2]
  IC50: 100 to 500 nM

## Cc1nn(C)cc1-c1cc2c(N3CCN(C(=O)OC4COC4)CC3)ccnc2[nH]1 [Compound 151]
[1]
  IC50: ≤ 10 nM
[2]
  IC50: 100 to 500 nM

## O=C(OC1COC1)N1CCN(c2ccnc3[nH]c(-c4nc5c(s4)CSCC5)cc23)CC1 [Compound 417]
[1]
  IC50: ≤ 10 nM
[2]
  IC50: ≤ 100 nM

## O=C(OC1COC1)N1CCN(c2ccnc3[nH]c(-c4ccc([C@]5(O)CCOC5)cc4)cc23)CC1 [Compound 429]
[1]
  IC50: ≤ 10 nM
[2]
  IC50: ≤ 100 nM

## CC(C)OC(=O)N1CCN(c2ccnc3[nH]c(-c4cnn(C)c4)cc23)CC1 [Compound 41]
[1]
  IC50: ≤ 10 nM
[2]
  IC50: 100 to 500 nM

## C[S+]([O-])c1ccc(-c2cc3c(N4CCN(C(=O)C5CC5)CC4)ccnc3[nH]2)cc1 (stereo not shown) [Compound 225]
[1]
  IC50: ≤ 10 nM
[2]
  IC50: 100 to 500 nM

## Cn1cnc(-c2cc3c(N4CCN(C(=O)OC5CC5)CC4)ccnc3[nH]2)c1 [Compound 29]
[1]
  IC50: ≤ 10 nM
[2]
  IC50: ≤ 100 nM

## CCCOC(=O)N1CCN(c2ccnc3[nH]c(-c4cnn(C)c4)c(C#N)c23)CC1 [Compound 136]
[1]
  IC50: ≤ 10 nM
[2]
  IC50: ≤ 100 nM

## O=C(OC1COC1)N1CCN(c2ccnc3[nH]c(-c4ccc(C5(O)CCOCC5)cc4)cc23)CC1 [Compound 445]
[1]
  IC50: ≤ 10 nM
[2]
  IC50: ≤ 100 nM

## Cc1c(-c2cc3c(N4CCN(C(=O)OC5COC5)CC4)ccnc3[nH]2)cnn1C(C)C [Compound 305]
[1]
  IC50: ≤ 10 nM
[2]
  IC50: 100 to 500 nM
